Structures can show the parent of a compound that is named as a salt.
Legend:
human FLAP = human FLAP (Homo sapiens (Human), UniProt P20292); experiment: FLAP binding assay (HTRF format); conditions: human FLAP-containing Sf-9 membranes, wild type; average of runs
Method: (§1) The ability of the compounds of the present invention to treat a FLAP-mediated disease and/or disorder, or associated symptoms or complications thereof, was determined using the following procedures. Binding assay data represent the average value obtained from two different assay plates, with samples run in duplicate on each plate. Human whole blood assay data represent a single replicate on an assay plate using whole blood from at least one healthy donor.
The assay below is used to test the modulatory activity of compounds against FLAP. Human and mouse FLAP-encoding DNA was amplified by polymerase chain reaction and cloned into pFastBac1 (Invitrogen) with a NH2-terminal 6-His tag for expression in Spodoptera frugiperda (Sf-9) cells. FLAP-containing membranes were prepared as was a FITC-labeled FLAP modulator (3-(3-(tert-butylthio)-1-(4-chlorobenzyl)-5-(quinolin-2-ylmethoxy)-1H-indol-2-yl)-2,2-dimethylpropanoic acid). The FLAP binding assay is performed in HTRF format (homogeneous time resolved fluorescence). […] The reaction is allowed to proceed for two hours after which the plate is read on an Envision plate reader in HTRF mode. Data are expressed as a HTRF ratio.
For human FLAP binding assays, data are analyzed with 3DX Explorer software. […] For analysis, data from multiple runs are averaged and each compound may be tested in 2 to 20 runs. Each run comprises two plates and each plate includes duplicates. Data from each plate is averaged and data are imported into 3DX. The data from multiple runs are aggregated as the average of duplicates of the calculated ratios in order to calculate Ki and IC50 values. Numbers in parentheses are the number of runs for the assay.

[1] = system: leukotriene pathway in human whole blood; experiment: Human whole blood assay (LTB4, A23187-stimulated); format: cell-based; conditions: human whole blood diluted 1:1 in RPMI, calcium ionophore A23187 7 μg/mL, 30 min
Method: as §1
An in vitro cellular assay was performed using human whole blood collected in heparin-containing tubes, which was used to test the ability of compounds to modulate the leukotriene pathway in human whole blood. The blood was diluted 1:1 in RPMI medium, pre-incubated for 15 min at 37° Celsius with test compounds at various concentrations, and then stimulated with calcium ionophore, A23187 (7 μg/mL), for 30 min at 37° Celsius. The samples were then centrifuged and plasma was removed. The plasma was diluted in assay buffer and LTB4 levels were measured using a commercial kit (Enzo Life Sciences). The concentration of each compound that was required for half-maximal inhibition (modulation) of […] (IC50) was calculated by a 4-parameter equation using the program GraphPad Prism (GraphPad software). For analysis, data are imported into 3DX and aggregated as the average of duplicates of the calculated ratios in order to calculate Ki and IC50 values. Numbers in parentheses are the number of runs for the assay.

human FLAP, sequence (P20292 whole entry): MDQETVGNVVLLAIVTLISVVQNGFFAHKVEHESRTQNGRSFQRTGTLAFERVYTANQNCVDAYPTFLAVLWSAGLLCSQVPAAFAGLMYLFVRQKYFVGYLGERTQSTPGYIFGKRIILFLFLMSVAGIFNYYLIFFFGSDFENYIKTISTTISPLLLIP

Row | Structure (SMILES) | Ki (human FLAP) [µM] | IC50 ([1]; Homo sapiens, 0.5 h) [µM] | IC50 [1] [µM]
1 | Cn1ccc(COc2ccc3nc(C4CCCC[C@H]4C(=O)O)n(Cc4cccc(N5CCCCC5)c4)c3c2)n1 (mixture of isomers) [Example 204, racemic cis-2-{6-[(1-Methyl-1H-pyrazol-3-yl)methoxy]-1-(3-piperidin-1-ylbenzyl)-1H-benzimidazol-2-yl}cyclohexanecarboxylic acid] | 0.031 | 0.24 | –
2 | CCC(CC)(Cc1nc2ccc(OCc3ncc(C)cc3F)cc2n1Cc1ccc(N2CCC(C(F)(F)F)CC2)cc1)C(=O)O [Example 194, 2-Ethyl-2-[(6-[(3-fluoro-5-methylpyridin-2-yl)methoxy]-1-{4-[4-(trifluoromethyl)piperidin-1-yl]benzyl}-1H-benzimidazol-2-yl)methyl]butanoic acid] | 0.0057 | 0.58 | –
3 | Cn1ccc(COc2ccc3nc(C4CCCC[C@H]4C(=O)O)n(Cc4cccc(N5CCC(F)(F)CC5)c4)c3c2)n1 (mixture of isomers) [Example 203, racemic cis-2-{1-[3-(4,4-Difluoropiperidin-1-yl)benzyl]-6-[(1-methyl-1H-pyrazol-3-yl)methoxy]-1H-benzimidazol-2-yl}cyclohexanecarboxylic acid] | 0.018 | 0.73 | –
4 | CCC(CC)(Cc1nc2ccc(OCc3ccn(C)n3)cc2n1Cc1cccc(N2CCC(F)(F)C2)c1)C(=O)O [Example 211, 2-({1-[3-(3,3-Difluoropyrrolidin-1-yl)benzyl]-6-[(1-methyl-1H-pyrazol-3-yl)methoxy]-1H-benzimidazol-2-yl}methyl)-2-ethylbutanoic acid] | 0.035 | 0.84 | –
5 | Cn1ccc(COc2cc(F)c3nc(C4CCCC[C@H]4C(=O)O)n(Cc4ccc(N5CCC(F)(F)C5)cc4)c3c2)n1 (mixture of isomers) [Example 236, racemic cis-2-{1-[4-(3,3-Difluoropyrrolidin-1-yl)benzyl]-4-fluoro-6-[(1-methyl-1H-pyrazol-3-yl)methoxy]-1H-benzimidazol-2-yl}cyclohexanecarboxylic acid] | 0.0024 | 1.65 | –
6 | Cc1ccc(COc2ccc3nc(C4CCCC[C@H]4C(=O)O)n(Cc4cc(N5CCC(F)(F)CC5)ccc4F)c3c2)nc1 (mixture of isomers) [Example 208, racemic cis-2-{1-[5-(4,4-Difluoropiperidin-1-yl)-2-fluorobenzyl]-6-[(5-methylpyridin-2-yl)methoxy]-1H-benzimidazol-2-yl}cyclohexanecarboxylic acid] | 0.0095 | 0.37 | –
7 | Cc1cnc(COc2ccc3nc(CC(C)(C)C(=O)O)n(Cc4cc(Br)ccc4F)c3c2)c(F)c1 [Example 193, 3-{1-(5-Bromo-2-fluorobenzyl)-6-[(3-fluoro-5-methylpyridin-2-yl)methoxy]-1H-benzimidazol-2-yl}-2,2-dimethylpropanoic acid] | 0.12 | 5.55 | –
8 | Cn1ccc(COc2ccc3nc(C4CCCC[C@H]4C(=O)O)n(Cc4cc(Br)ccc4F)c3c2)n1 (mixture of isomers) [Example 233, racemic cis-2-{1-(5-Bromo-2-fluorobenzyl)-6-[(1-methyl-H-pyrazol-3-yl)methoxy]-1H-benzimidazol-2-yl}cyclohexanecarboxylic acid] | 0.035 | 2.26 | –
9 | CCC(CC)(Cc1nc2ccc(OCc3ccn(C)n3)cc2n1Cc1cccc(N2CCCCC2)c1)C(=O)O [Example 212, 2-Ethyl-2-({6-[(1-methyl-1H-pyrazol-3-yl)methoxy]-1-(3-piperidin-1-ylbenzyl)-1H-benzimidazol-2-yl}methyl)butanoic acid] | 0.09 | 1.08 | –
10 | Cn1ccc(COc2ccc3nc(C4CCCC[C@H]4C(=O)O)n(Cc4cccc(N5CC(F)(F)C5)c4)c3c2)n1 (mixture of isomers) [Example 205, racemic cis-2-{1-[3-(3,3-Difluoroazetidin-1-yl)benzyl]-6-[(1-methyl-1H-pyrazol-3-yl)methoxy]-1H-benzimidazol-2-yl}cyclohexanecarboxylic acid as the trifluoroacetic acid salt] | 0.021 | 1.67 | –

Further lines, results first:

Row | Ki (human FLAP) [µM] | IC50 ([1]; Homo sapiens, 0.5 h) [µM] | IC50 [1] [µM] | Structure (SMILES)
11 | 0.0066 | 0.5 | – | Cc1ccc(COc2ccc3nc(C4CCCC[C@H]4C(=O)O)n(Cc4cccc(N5CCC(F)(F)CC5)c4)c3c2)nc1 (mixture of isomers) [Example 221, racemic cis-2-{1-[3-(4,4-Difluoropiperidin-1-yl)benzyl]-6-[(5-methylpyridin-2-yl)methoxy]-1H-benzimidazol-2-yl}cyclohexanecarboxylic acid]
12 | 0.019 | 1.43 | – | COc1ncc(-c2cccc(Cn3c(C4CCCC[C@H]4C(=O)O)nc4ccc(OCc5ccc(C)cn5)cc43)c2)cn1 (mixture of isomers) [Example 195, racemic cis-2-{1-[3-(2-Methoxypyrimidin-5-yl)benzyl]-6-[(5-methylpyridin-2-yl)methoxy]-1H-benzimidazol-2-yl}cyclohexanecarboxylic acid]
13 | 0.03 | 3.14 | – | Cc1ccc(COc2ccc3nc(C4CCCC[C@H]4C(=O)O)n(Cc4cccc(C)c4)c3c2)nc1 (mixture of isomers) [Example 200, racemic trans-2-{1-(3-Methylbenzyl)-6-[(5-methylpyridin-2-yl)methoxy]-1H-benzimidazol-2-yl}cyclohexanecarboxylic acid]
14 | 0.0068 | 4.01 | – | Cc1ccc(COc2ccc3nc(C4CCCC[C@H]4C(=O)O)n(Cc4cccc(Br)c4)c3c2)nc1 (mixture of isomers) [Example 228, racemic cis-2-{1-(3-Bromobenzyl)-6-[(5-methylpyridin-2-yl)methoxy]-1H-benzimidazol-2-yl}cyclohexanecarboxylic acid]
15 | 0.0066 | 1.81 | – | Cn1ccc(COc2ccc3nc(C4CCCC[C@H]4C(=O)O)n(Cc4cccc(Br)c4)c3c2)n1 (single isomer, unassigned) [Example 197, (1S*,2R*)-2-{1-(3-Bromobenzyl)-6-[(1-methyl-1H-pyrazol-3-yl)methoxy]-1H-benzimidazol-2-yl}cyclohexanecarboxylic acid]
16 | 0.073 | > 30 | – | Cc1ccc(COc2cc(F)c3nc(CC4(C(=O)O)CCCC4)n(Cc4cccc(Br)c4)c3c2)nc1 [Example 230, 1-({1-(3-Bromobenzyl)-4-fluoro-6-[(5-methylpyridin-2-yl)methoxy]-1H-benzimidazol-2-yl}methyl)cyclopentanecarboxylic acid as the trifluoroacetic salt]
17 | 0.031 | – | 1.81 | Cc1ccc(COc2ccc3nc(C4CCCC[C@H]4C(=O)O)n(Cc4ccccc4C)c3c2)nc1 (mixture of isomers) [Example 207, racemic cis-2-{1-(2-Methylbenzyl)-6-[(5-methylpyridin-2-yl)methoxy]-1H-benzimidazol-2-yl}cyclohexanecarboxylic acid]
18 | 0.0038 | 0.31 | – | Cc1ccc(COc2ccc3nc(C4CCCC[C@H]4C(=O)O)n(Cc4cccc(N5CCCC(F)(F)C5)c4)c3c2)nc1 (mixture of isomers) [Example 222, racemic cis-2-{1-[3-(3,3-Difluoropiperidin-1-yl)benzyl]-6-[(5-methylpyridin-2-yl)methoxy]-1H-benzimidazol-2-yl}cyclohexanecarboxylic acid]
19 | 0.012 | – | 1.68 | Cc1ccc(COc2ccc3nc(C4CCCC[C@H]4C(=O)O)n(Cc4cccc(C)c4)c3c2)nc1 (mixture of isomers) [Example 201, racemic cis-2-{1-(3-Methylbenzyl)-6-[(5-methylpyridin-2-yl)methoxy]-1H-benzimidazol-2-yl}cyclohexanecarboxylic acid]
20 | 0.017 | ~3.2 | – | CCC(CC)(Cc1nc2ccc(OCc3ccc(C)cn3)cc2n1Cc1ccc(N2CCC(F)(F)C2)cc1)C(=O)O [Example 226, 2-({1-[4-(3,3-Difluoropyrrolidin-1-yl)benzyl]-6-[(5-methylpyridin-2-yl)methoxy]-1H-benzimidazol-2-yl}methyl)-2-ethylbutanoic acid]
21 | 0.18 | > 30 | – | Cc1ccc(COc2cc(F)c3nc(CC4(C(=O)O)CCCC4)n(Cc4ccccc4Br)c3c2)nc1 [Example 231, 1-({1-(2-Bromobenzyl)-4-fluoro-6-[(5-methylpyridin-2-yl)methoxy]-1H-benzimidazol-2-yl}methyl)cyclopentanecarboxylic acid as the trifluoroacetic salt]
22 | 0.045 | 1.27 | – | Cc1ccc(COc2ccc3nc(C4CCCC[C@H]4C(=O)O)n(Cc4ccccc4C)c3c2)nc1 (mixture of isomers) [Example 206, racemic trans-2-{1-(2-Methylbenzyl)-6-[(5-methylpyridin-2-yl)methoxy]-1H-benzimidazol-2-yl}cyclohexanecarboxylic acid]

From patent US9695149B2, “1,2,6-substituted benzimidazoles as flap modulators” (JANSSEN PHARMACEUTICA NV, priority 2013, dated 2017)
